Reference: article PMC7592081, “Single-Atom Nanozymes Linked Immunosorbent Assay for Sensitive Detection of Aβ 1-40: A Biomarker of Alzheimer's Disease” (Research, 2020)

System: T1, horseradish peroxidase (HRP)
T1 construct: gene PRXC1A; natural HRP
Assay: steady-state kinetics, Michaelis-Menten fit, absorbance of oxidised TMB ([…] nm)
Format: biochemical, Armoracia rusticana
Details: co-substrate H2O2; acetate buffer pH 3.6 (printed for the nanozyme assay)

SMILES: Cc1cc(-c2cc(C)c(N)c(C)c2)cc(C)c1N [3,3′,5,5′-tetramethylbenzidine]
- Km: 427 µM
